Experimental data: patent US12686727B2, “Antibodies for binding plasmin” (MONASH UNIVERSITY, priority 2019, dated 2026)

B1: alpha-2-antiplasmin (protein)
chain: NQEQVSPLTLLKLGNQEPGGQTALKSPPGVCSRDPTPEQTHRLARAMMAFTADLFSLVAQTSTCPNLILSPLSVALALSHLALGAQNHTLQRLQQVLHAGSGPCLPHLLSRLCQDLGPGAFRLAARMYLQKGFPIKEDFLEQSEQLFGAKPVSLTGKQEDDLANINQWVKEATEGKIQEFLSGLPEDTVLLLLNAIHFQGFWRNKFDPSLTQRDSFHLDEQFTVPVEMMQARTYPLRWFLLEQPEIQVAHFPFKNNMSFVVLVPTHFEWNVSQVLANLSWDTLHPPLVWERPTKVRLPKLYLKHQMDLVATLSQLGLQELFQAPDLRGISEQSLVVSGVQHQSTLELSEVGVEAAAATSIAMSRMSLSSFSVNRPFLFFIFEDTTGLPLFVGSVRNPNPSAPRELKEQQDSPGNKDFLQSLKGFPRGDKLFGPDLKLVPPMEEDYPQFGSPK

System: whole blood clots
Experiment: Whole blood clot lysis induced by tPA
Assay type: cell-based, human
Conditions: for inhibition of clot lysis at high concentrations: up to 1,000 nM
Method: Whole blood clots were formed from human blood collected from healthy donors. Halo-shaped clots were generated by mixing whole blood with 15% of a mixture containing recombinant tissue factor supplemented with synthetic phospholipids Dade Innovin, Siemens Germany and 67 mM CaCl2 in HBS at 1:4 ratio. The plate was sealed and incubated at 37° C. for 60 min before use.
Clot lysis was induced by the addition of tPA to 7 nM and antibodies or Plm inhibitors at the following concentrations: 0-312.5 nM B10; 0-1000 nM α2AP; 0-1000 nM aprotinin; 0-7.5 mM TXA. Clot lysis leads to an […] of turbidity and was monitored at OD610 nm using a plate reader.
The time required to achieve 50% clot lysis was used for IC50 calculation. […] B10 was more than 180-fold more efficacious than TXA (not shown).

Molecule	concentration of total inhibition of clot lysis (7 nM tPA, data not shown) [µM]	effect on clot lysis (concentration up to 100 μM)	inhibition of clot lysis at high concentrations
NC[C@H]1CC[C@H](C(=O)O)CC1 [TXA, tranexamic acid, reference compound]	≥ 300	delayed clot lysis	
Aprotinin [reference compound]			only partially inhibit clot lysis
B1			only partially inhibit clot lysis
